We go through 13 molecules from ChEMBL document CHEMBL4627261, “A panoramic review of IL-6: Structure, pathophysiological roles and inhibitors” (Bioorg Med Chem, 2020).

Experiment [1] has as its system WEHI265.1. Put plainly: Antiinflammatory activity in LPS-induced mouse WEHI265.1 cells assessed as reduction in IL-6 level at 10 uM by ELISA relative to control. It is filed as functional. In general terms: An ELISA detects its analyte on a solid surface through an enzyme-linked reagent.
Experiment [2] concerns WEHI265.1. Put plainly: Antiinflammatory activity in LPS-induced mouse WEHI265.1 cells assessed as reduction in IL-6 level by ELISA. The experiment is classed as functional, cell-based.
The next experiment concerns Mus musculus. Description: Antiinflammatory activity in LPS-induced mouse model assessed as reduction in IL-6 level in serum at 25 mg/kg, po relative to control. The experiment is classed as functional.
The species named for experiment [3] is Homo sapiens. Description: Inhibition of PI3K (unknown origin) assessed as reduction in PI3K phosphorylation by cell based assay at 10 ug/ml relative to control.
Experiment [4] deals with RAC-alpha serine/threonine-protein kinase (Homo sapiens) (UniProt P31749). Description: Inhibition of AKT (unknown origin) assessed as reduction in […] phosphorylation at 10 ug/ml by cell based assay relative to control.
RAC-alpha serine/threonine-protein kinase (Homo sapiens), sequence (P31749 whole entry): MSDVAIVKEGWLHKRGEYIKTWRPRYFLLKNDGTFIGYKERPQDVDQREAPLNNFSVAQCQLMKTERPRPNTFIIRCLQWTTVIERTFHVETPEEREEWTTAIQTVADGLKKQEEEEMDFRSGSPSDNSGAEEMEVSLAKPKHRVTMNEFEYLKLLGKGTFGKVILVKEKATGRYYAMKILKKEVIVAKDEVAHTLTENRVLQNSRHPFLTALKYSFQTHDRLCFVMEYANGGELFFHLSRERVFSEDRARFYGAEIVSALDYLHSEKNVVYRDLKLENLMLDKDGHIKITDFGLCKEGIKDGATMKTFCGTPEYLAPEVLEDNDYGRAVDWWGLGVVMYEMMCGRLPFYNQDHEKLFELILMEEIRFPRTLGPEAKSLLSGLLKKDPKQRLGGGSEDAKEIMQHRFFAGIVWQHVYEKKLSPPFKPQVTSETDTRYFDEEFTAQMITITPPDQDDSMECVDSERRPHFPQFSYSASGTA
For experiment [5], the species on record is Homo sapiens. Description: Inhibition of MAPK (unknown origin) assessed as reduction in […] phosphorylation by cell based assay at 10 ug/ml relative to control.
A further experiment concerns RAW264.7. Description: Effect on IL-6 mRNA expression in mouse RAW264.7 cells at 10 ug/ml relative to control. It is filed as functional.

The inhibition is the change of the read-out against control, counted positive when it falls. What is called IC50 is the concentration that inhibits the measured activity by half. For the molecule `O=c1c2c(n3c(c1-c1ccccc1Cl)NCC3)CCC2`, in the experiment with WEHI265.1 [1], the inhibition at 10 µM came to 90%. The IC50 in the experiment on WEHI265.1 [2] is 200 nM.
The like results for `Nc1ccccc1-c1c2n(c3c(c1=O)CCC3)CCN2` were, in that order, 82% and 200 nM.
The like results for `O=c1c2c(n3c(c1-c1ccccc1)NCC3)CCC2` were, in that order, 74% and 200 nM.
Consider `CC(=O)Nc1ccccc1-c1c2n(c3c(c1=O)CCC3)CCN2`, for which the inhibition at 10 µM with WEHI265.1 [1] was found to be 74%. Also, in the experiment with WEHI265.1 [2], the IC50 is 200 nM.
As usually defined, the inhibition in vivo is the percentage by which the read-out fell short of the control. As to `Oc1ccc(-c2cccc(-c3ccc(O)cc3)c2)cc1`, the inhibition at 10 µM in the experiment on WEHI265.1 [1] is 85%. Further, the inhibition in vivo at 25 mg/kg in the experiment with Mus musculus came to 88%.
As for `COC(=O)CCC(=O)Nc1ccccc1C(=O)OC`, the inhibition in the experiment filed under Homo sapiens [3] turned out to be 51%; in experiment [4], 70%; in the experiment filed under Homo sapiens [5], 54%. Besides, in the experiment on RAW264.7, the Activity is reported as 33%.
With `O=c1c2c(n3c(c1-c1ccccc1)SCC3)CCC2`, the inhibition at 10 µM in the experiment on WEHI265.1 [1] worked out at 52%. Besides, in the experiment on WEHI265.1 [2], the IC50 stood at 200 nM.
Consider `O=c1c2c(n3c(c1-c1ccccc1)OCC3)CCC2`, for which, in the experiment with WEHI265.1 [1], the inhibition at 10 µM amounted to 20%. Besides, the IC50 in the experiment with WEHI265.1 [2] stood at 200 nM.
With `CN1CCn2c3c(c(=O)c(-c4ccccc4)c21)CCC3`, the inhibition at 10 µM in the experiment with WEHI265.1 [1] came to 43%. The 50% inhibitory concentration (IC50) in the experiment with WEHI265.1 [2] amounted to 200 nM.
The like results for `O=c1c2c(n3c(c1-c1ccccc1[N+](=O)[O-])NCC3)CCC2` were, in that order, 73% and 200 nM.
Consider `Oc1ccc(-c2cncc(-c3ccc(O)cc3)c2)cc1`, for which the inhibition at 10 µM with WEHI265.1 [1] came out at 73%. The inhibition in vivo at 25 mg/kg with Mus musculus stood at 71%.
`COc1ccccc1-c1c2n(c3c(c1=O)CCC3)CCN2`: in the experiment on WEHI265.1 [1], the inhibition at 10 µM was 82%. Besides, the IC50 in the experiment on WEHI265.1 [2] came to 200 nM.
On to `Oc1ccc(-c2cncc(-c3ccc(O)cc3)n2)cc1`, for which the inhibition at 10 µM with WEHI265.1 [1] turned out to be 55%.
